Experimental findings from patent US20260250247A1, “NOVEL INDOLINE DERIVATIVE AND USE THEREOF” (CK REGEON INC., priority 2023, published 2026) are described below.

The target in assay [1] is CXXC5-Dvl interaction (PDZ domain of Dvl (dishevelled) protein / PTD-DBM-FITC). The assay is described as follows: CXXC5-Dvl binding inhibition, competition of PTD-DBM-FITC on plate-bound Dvl PDZ domain. As to conditions: purified Dvl PDZ domain 5 μg/mL, 10 μM PTD-DBM-FITC, compounds 0.001-100 μM, FITC fluorescence. Here is the method: 5 μg/mL of the purified PDZ domain ofDvl (dishevelled) protein was attached to the bottom of a 96-well black immunoplate and left in a chamber at 4° C. for one day. The next day, each well was washed with PBS and 10 μM PTD-DBM-FITC was added. After incubation at room temperature for 3 hours, each well was washed with PBS. Each well was treated with the indoline derivatives at various concentrations (100, 10, 1, 0.1, 0.01, and 0.001 μM) in 100 μL of PBS. After washing with a buffer, fluorescence was measured by FITC using a microplate reader. A competition binding curve showing the degree of CXXC5-Dvl PPI inhibition was constructed using the GraphPad Prism software, and the IC50 value was calculated. […] CK090), and the intermediate compound 5-cyanoindirubin as controls.

In a further assay the test system is 3T3-L1 pre-adipocytes. The assay is described as follows: Inhibition of adipocyte differentiation and lipid accumulation, Oil Red O. The format is cell-based. Conditions: 3T3-L1, compound 1 μM, MDI-induced differentiation for 8 days, Oil Red O eluted, absorbance 544 nm; for activity at 1 µM: Mus musculus, 192 h, read-out: lipid accumulation rate. Here is the method: 3T3-L1 cells were seeded in a 6-well plate at a density of […] cells per well. The cells were grown to 100% confluency in Dulbecco's modified Eagle's medium (DMEM) supplemented with 10% bovine calf serum (BCS; GIBCO). Two days after reaching 100% confluency, differentiation was induced with or without treatment with the indoline compound at a concentration of 1 μM in DMEM containing 10% fetal bovine serum (FBS; GIBCO) and MDI (520 μM methylisobutylxanthine (IBMX; Sigma-Aldrich), 1 μM dexamethasone (Sigma-Aldrich), and 5 μM insulin (GIBCO)). On day 3, the medium was replaced with DMEM containing 10% FBS and 5 μM insulin with or without the indoline compound, and then with a fresh identical medium every 2 days. After differentiation for 8 days, the culture medium was removed, and the cells were washed with PBS and then fixed with 10% formaldehyde for 1 hour. After removing the 10% formaldehyde, the cells were washed thoroughly with distilled water. After that, 60% isopropanol was added and immediately then removed. After washing with distilled water, lipid droplets were stained with an Oil Red O dye solution for 20 minutes and then washed with distilled water. The cells were counterstained with Mayer's hematoxylin. Oil Red O images were visualized using a bright-field microscope (Nikon TE-2000U). To quantify the accumulated lipids, Oil Red O was eluted by adding isopropanol, and absorbance was measured spectrophotometrically at 544 nm using a multi-plate reader.
As A3051 (KY19382) and A3334, self-developed and synthesized materials were used. As BIO, or GSK 3 Inhibitor IX, also known as 6-bromoindirubin-3′-oxime, HY-10580 was purchased commercially.
In FIG. 2, the undifferentiated group (Un Diff) refers to undifferentiated adipocytes, or preadipocytes that had not been induced to differentiate, and the differentiated group (Diff) refers to fully differentiated adipocytes.

Structures can show the parent of a compound that is named as a salt.

By IC50 is commonly meant the midpoint of a concentration-inhibition curve. A low value points to greater potency in that assay. `N#Cc1ccc2c(c1)/C(=C1/Nc3ccccc3/C1=N\OCCCN1CCOCC1)C(=O)N2` [Example 10, (2Z,3E)-3-((3-morpholinopropoxy)imino)-2′-oxo-[2,3′-biindolinylidene]-5′-carbonitrile] came in with an IC50 in assay [1] of 0.0127 µM. Moreover, in the assay with 3T3-L1 pre-adipocytes, the activity at 1 µM came to 24.3%. On to `O=C1Nc2cc(Br)ccc2/C1=C1/Nc2ccccc2/C1=N\O` [BIO, 6-bromoindirubin-3′-oxime, reference compound], for which, in the assay on 3T3-L1 pre-adipocytes, the lipid accumulation rate turned out to be 79.4%. For `N#Cc1ccc2c(c1)/C(=C1/Nc3ccccc3/C1=N\OCCCN1CCSCC1)C(=O)N2` [Example 12, (2Z,3E)-2′-oxo-3-((3-thiomorpholinopropoxy)imino)-[2,3′-biindolinylidene]-5′-carbonitrile], the IC50 in assay [1] came out at 0.00626 µM. In the assay with 3T3-L1 pre-adipocytes, the activity at 1 µM was determined as 27.4%. On the same counts, the results for `N#Cc1ccc2c(c1)/C(=C1/Nc3ccccc3/C1=N\OCCN1CCCC1)C(=O)N2` [Example 6, (2Z,3E)-2′-oxo-3-((2-(pyrrolidin-1-yl)ethoxy)imino)-[2,3′-biindolinylidene]-5′-carbonitrile] are 0.037 µM and 25.8%. In the case of `Cc1cc2c(cc1Cl)NC(=O)/C2=C1\Nc2ccccc2\C1=N/OCCN1CCN(C)CC1` [CK090, (2Z,3E)-6′-chloro-5′-methyl-3-((2-(4-methylpiperazin-1-yl)ethoxy)imino)-[2,3′-biindolinylidene]-2′-one, reference compound], in assay [1], the half-inhibitory concentration (IC50) amounted to 4.22 µM. For `N#Cc1ccc2c(c1)/C(=C1/Nc3ccccc3/C1=N\OCCCN1CCCC1)C(=O)N2` [Example 8, (2Z,3E)-2′-oxo-3-((3-(pyrrolidin-1-yl)propoxy)imino)-[2,3′-biindolinylidene]-5′-carbonitrile], the IC50 in assay [1] was found to be 0.0172 µM. Further, the activity at 1 µM in the assay on 3T3-L1 pre-adipocytes turned out to be 25.1%. On to `N#Cc1ccc2c(c1)/C(=C1/Nc3ccccc3/C1=N\OCCCN1CCCCC1)C(=O)N2` [Example 7, (2Z,3E)-2′-oxo-3-((3-(piperidin-1-yl)propoxy)imino)-[2,3′-biindolinylidene]-5′-carbonitrile], for which the IC50 in assay [1] was determined as 0.0108 µM. In addition, the activity at 1 µM with 3T3-L1 pre-adipocytes worked out at 33.6%. As to `O=C1Nc2ccccc2/C1=C1/Nc2ccccc2C1=O` [Indirubin, (Z)-[2,3′-biindolinylidene]-2′,3-dione, reference compound], in assay [1], the IC50 worked out at 53.9 µM. Also, in the assay with 3T3-L1 pre-adipocytes, the activity at 1 µM was found to be 96.4%. `N#Cc1ccc2c(c1)/C(=C1/Nc3ccccc3/C1=N\OCCN1CCCC1C(=O)O)C(=O)N2` (stereo not drawn) [Example 15, (2-((((2Z,3E)-5′-cyano-2′-oxo-[2,3′-biindolinidene]-3-ylidene)amino)oxy)ethyl)proline] registered an IC50 in assay [1] of 0.0452 µM. Further, the activity at 1 µM in the assay on 3T3-L1 pre-adipocytes turned out to be 24.8%. On the same counts, the results for `N#Cc1ccc2c(c1)/C(=C1/Nc3ccccc3/C1=N\OCCN1CCCCC1)C(=O)N2` [Example 5, (2Z,3E)-2′-oxo-3-((2-(piperidin-1-yl)ethoxy)imino)-[2,3′-biindolinylidene]-5′-carbonitrile] are 0.00929 µM and 26.2%.

For `N#Cc1ccc2c(c1)/C(=C1/Nc3ccccc3/C1=N\OCCN1CCS(=O)(=O)CC1)C(=O)N2` [Example 13, (2Z,3E)-3-((2-(1,1-dioxidothiomorpholino)ethoxy)imino)-2′-oxo-[2,3′-biindolinidene]-5′-carbonitrile], in assay [1], the IC50 was 0.00265 µM. Also, the activity at 1 µM in the assay on 3T3-L1 pre-adipocytes worked out at 26.6%.

In assay [1], `CN1CCN(CCCO/N=C2/C(=C3/C(=O)Nc4ccc(C#N)cc43)Nc3ccccc32)CC1` [Example 11, (2Z,3E)-3-((3-(4-methylpiperazin-1-yl)propoxy)imino)-2′-oxo-[2,3′-biindolinylidene]-5′-carbonitrile] had an IC50 of 0.0123 µM. In the assay with 3T3-L1 pre-adipocytes, the activity at 1 µM was determined as 24.1%. On to `N#Cc1ccc2c(c1)/C(=C1/Nc3ccccc3/C1=N\OCCCN1CCNCC1)C(=O)N2` [Example 9, (2Z,3E)-2′-oxo-3-((3-(piperazin-1-yl)propoxy)imino)-[2,3′-biindolinylidene]-5′-carbonitrile], for which the IC50 in assay [1] worked out at 0.0204 µM. Moreover, the activity at 1 µM with 3T3-L1 pre-adipocytes was determined as 25.4%. The corresponding values for `N#Cc1ccc2c(c1)/C(=C1/Nc3ccccc3/C1=N\OCCN1CC[S+]([O-])CC1)C(=O)N2` [Example 14, (2Z,3E)-3-((2-(1-oxidothiomorpholino)ethoxy)imino)-2′-oxo-[2,3′-biindolinidene]-5′-carbonitrile hydrochloride] are 0.0261 µM and 26.8%. `COc1ccc2c(c1)/C(=C1/Nc3ccccc3/C1=N\O)C(=O)N2` [Example A3334, reference compound] displayed a lipid accumulation rate with 3T3-L1 pre-adipocytes of 78.7%.
